Test system: bacterial production of odoriferous steroids
Experiment: sub-lethal inhibition of the bacterial production of odoriferous steroids
Format: cell-based

In the case of `CC(C)(C)NC(=O)[C@H]1CC[C@H]2[C@@H]3CC[C@H]4NC(=O)C=C[C@]4(C)[C@H]3CC[C@]12C` [finasteride], the “sub-lethally inhibiting the bacterial production of odoriferous steroids” value is reported as “incapable of sub-lethally inhibiting”.
